# Results reported in publication PMC5218480 (PLoS ONE, 2017).
# Tested on: MV-4-11 cells
# Assay: Gene expression microarray analysis (Affymetrix PrimeView) and GSEA
# Format: cell-based, human
# Set-up: RFU PODN (11730768_x_at) / Fold change /veh PODN (11730768_x_at) / RFU LINC00158 (11744669_a_at) / Fold change /veh LINC00158 (11744669_a_at) / RFU DUSP10 (11751237_a_at) / Fold change /veh DUSP10 (11751237_a_at) / RFU ID3 (11757404_x_at) / Fold change /veh ID3 (11757404_x_at) / RFU PLEKHG5 (11737974_s_at) / Fold change /veh PLEKHG5 (11737974_s_at) / RFU LRRC4B (11730491_at) / Fold change /veh LRRC4B (11730491_at) / RFU GIMAP4 (11747438_a_at) / Fold change /veh GIMAP4 (11747438_a_at) / RFU KRT8 (11758183_x_at) / Fold change /veh KRT8 (11758183_x_at) / RFU CNN1 (11734310_a_at) / Fold change /veh CNN1 (11734310_a_at) / RFU VPS37D (11726825_at) / Fold change /veh VPS37D (11726825_at) / RFU C10orf10 (11716522_x_at) / Fold change /veh C10orf10 (11716522_x_at) / RFU KIR2DL2 /// KIR2DL4 /// KIR2DL5A /// KIR2DL5B /// KIR2DS1 /// KIR2DS2 /// KIR2DS3 /// KIR2DS4 /// KIR3DL3 /// KIR3DL3 /// KIR3DS1 (11738374_at) / Fold change /veh KIR2DL2 /// KIR2DL4 /// KIR2DL5A /// KIR2DL5B /// KIR2DS1 /// KIR2DS2 /// KIR2DS3 /// KIR2DS4 /// KIR3DL3 /// KIR3DL3 /// KIR3DS1 (11738374_at) / RFU C1QL1 (11718748_at) / Fold change /veh C1QL1 (11718748_at) / RFU TMPRSS4 (11747572_a_at) / Fold change /veh TMPRSS4 (11747572_a_at) / RFU HAMP (11756126_x_at) / Fold change /veh HAMP (11756126_x_at) / RFU RNFT2 (11725882_a_at) / Fold change /veh RNFT2 (11725882_a_at) / RFU NR4A2 (11747474_a_at) / Fold change /veh NR4A2 (11747474_a_at) / RFU ABCC12 (11746883_a_at) / Fold change /veh ABCC12 (11746883_a_at) / RFU TMEM136 (11760407_x_at) / Fold change /veh TMEM136 (11760407_x_at) / RFU CLDN22 /// WWC2 (11732394_at) / Fold change /veh CLDN22 /// WWC2 (11732394_at) / RFU HLA-DPB1 (11760878_x_at) / Fold change /veh HLA-DPB1 (11760878_x_at) / RFU SPINT1 (11716480_a_at) / Fold change /veh SPINT1 (11716480_a_at) / RFU GAP43 (11754022_s_at) / Fold change /veh GAP43 (11754022_s_at) / RFU A4GNT (11735810_at) / Fold change /veh A4GNT (11735810_at) / RFU PRB3 (11715151_x_at) / Fold change /veh PRB3 (11715151_x_at) / RFU TUBB4B (11761932_at) / Fold change /veh TUBB4B (11761932_at) / RFU CAPN14 (11732068_a_at) / Fold change /veh CAPN14 (11732068_a_at) / RFU TMCC2 (11721928_a_at) / Fold change /veh TMCC2 (11721928_a_at) / RFU IRGQ (11745062_a_at) / Fold change /veh IRGQ (11745062_a_at) / RFU FAM174B (11720279_a_at) / Fold change /veh FAM174B (11720279_a_at) / RFU TMPRSS4 (11748680_a_at) / Fold change /veh TMPRSS4 (11748680_a_at) / RFU FAM212B (11763350_a_at) / Fold change /veh FAM212B (11763350_a_at) / RFU PLEKHG5 (11743358_a_at) / Fold change /veh PLEKHG5 (11743358_a_at) / RFU ZSCAN30 (11745921_a_at) / Fold change /veh ZSCAN30 (11745921_a_at) / RFU CMKLR1 (11741424_a_at) / Fold change /veh CMKLR1 (11741424_a_at) / RFU LOC101060620 /// MAPK8IP1 (11723275_at) / Fold change /veh LOC101060620 /// MAPK8IP1 (11723275_at) / RFU SPTSSB (11747773_x_at) / Fold change /veh SPTSSB (11747773_x_at) / RFU PRSS12 (11739890_at) / Fold change /veh PRSS12 (11739890_at) / RFU BIN1 (11741810_x_at) / Fold change /veh BIN1 (11741810_x_at) / RFU WNT11 (11732464_a_at) / Fold change /veh WNT11 (11732464_a_at) / RFU C10orf10 (11716521_a_at) / Fold change /veh C10orf10 (11716521_a_at) / RFU C5orf56 (11738089_at) / Fold change /veh C5orf56 (11738089_at) / RFU CYB561 (11721691_x_at) / Fold change /veh CYB561 (11721691_x_at) / RFU ANKRD19P (11752326_a_at) / Fold change /veh ANKRD19P (11752326_a_at) / RFU OR2T12 /// OR2T33 /// OR2T8 (11738714_s_at) / Fold change /veh OR2T12 /// OR2T33 /// OR2T8 (11738714_s_at) / RFU VCAN (11748164_a_at) / Fold change /veh VCAN (11748164_a_at) / RFU JSRP1 (11732532_at) / Fold change /veh JSRP1 (11732532_at) / RFU KRTAP10-11 (11738290_x_at) / Fold change /veh KRTAP10-11 (11738290_x_at) / RFU MYO3A (11730013_a_at) / Fold change /veh MYO3A (11730013_a_at) / RFU EBF3 (11725865_a_at) / Fold change /veh EBF3 (11725865_a_at) / RFU CAMK2N1 (11719241_x_at) / Fold change /veh CAMK2N1 (11719241_x_at) / RFU C5orf56 (11738088_a_at) / Fold change /veh C5orf56 (11738088_a_at) / RFU OLFML3 (11715873_a_at) / Fold change /veh OLFML3 (11715873_a_at) / RFU LOC100653217 /// NTM (11731650_a_at) / Fold change /veh LOC100653217 /// NTM (11731650_a_at) / RFU MAPK11 (11762145_a_at) / Fold change /veh MAPK11 (11762145_a_at) / RFU FIZ1 (11724087_x_at) / Fold change /veh FIZ1 (11724087_x_at) / RFU OASL (11726364_x_at) / Fold change /veh OASL (11726364_x_at) / RFU SOX15 (11748057_x_at) / Fold change /veh SOX15 (11748057_x_at) / RFU CD79A (11719716_a_at) / Fold change /veh CD79A (11719716_a_at) / RFU HIST1H1D (11736915_at) / Fold change /veh HIST1H1D (11736915_at) / RFU CASKIN2 (11723855_a_at) / Fold change /veh CASKIN2 (11723855_a_at) / RFU LOC730098 (11760151_x_at) / Fold change /veh LOC730098 (11760151_x_at) / RFU OR4N2 (11742367_at) / Fold change /veh OR4N2 (11742367_at) / RFU PRRT2 (11749266_a_at) / Fold change /veh PRRT2 (11749266_a_at) / RFU SNX32 (11753110_a_at) / Fold change /veh SNX32 (11753110_a_at) / RFU CDHR5 (11726645_a_at) / Fold change /veh CDHR5 (11726645_a_at) / RFU RCAN1 (11760418_a_at) / Fold change /veh RCAN1 (11760418_a_at) / RFU FAM167A (11723789_a_at) / Fold change /veh FAM167A (11723789_a_at) / RFU FAM26E (11764081_at) / Fold change /veh FAM26E (11764081_at) / RFU ISYNA1 (11749810_s_at) / Fold change /veh ISYNA1 (11749810_s_at) / RFU ACY1 (11761880_at) / Fold change /veh ACY1 (11761880_at) / RFU 11764098_at / Fold change /veh 11764098_at / RFU SAMD14 (11745864_x_at) / Fold change /veh SAMD14 (11745864_x_at) / RFU NPB (11741838_a_at) / Fold change /veh NPB (11741838_a_at) / RFU TMPRSS6 (11731388_a_at) / Fold change /veh TMPRSS6 (11731388_a_at) / RFU KRTAP10-2 (11738614_at) / Fold change /veh KRTAP10-2 (11738614_at) / RFU ARHGAP8 /// PRR5-ARHGAP8 (11727945_x_at) / Fold change /veh ARHGAP8 /// PRR5-ARHGAP8 (11727945_x_at) / RFU KRTAP5-7 /// NADSYN1 (11734609_at) / Fold change /veh KRTAP5-7 /// NADSYN1 (11734609_at) / RFU RASL12 (11751679_a_at) / Fold change /veh RASL12 (11751679_a_at) / RFU CDKN2B (11736163_a_at) / Fold change /veh CDKN2B (11736163_a_at) / RFU PRF1 (11729649_at) / Fold change /veh PRF1 (11729649_at) / RFU, ZNF638 /// ZNF638-IT1 / Fold change vs veh, ZNF638 /// ZNF638-IT1 / RFU, PANK3 / Fold change vs veh, PANK3 / RFU, SH3YL1 / Fold change vs veh, SH3YL1 / RFU, ZEB2 / Fold change vs veh, ZEB2 / RFU, NRIP1 / Fold change vs veh, NRIP1 / RFU, PTTG1IP / Fold change vs veh, PTTG1IP / RFU, CAPN2 / Fold change vs veh, CAPN2 / RFU, MED14 / Fold change vs veh, MED14 / RFU, SNORA58 / Fold change vs veh, SNORA58 / RFU, C1orf63 / Fold change vs veh, C1orf63 / RFU, LRRFIP1 / Fold change vs veh, LRRFIP1 / RFU, NDUFAF7 / Fold change vs veh, NDUFAF7 / RFU, SLC12A2 / Fold change vs veh, SLC12A2 / RFU, IBTK / Fold change vs veh, IBTK / RFU, ESF1 / Fold change vs veh, ESF1 / Fold change vs veh, TMEM50B / RFU, TAOK1 / Fold change vs veh, TAOK1 / RFU, ACBD3 / Fold change vs veh, ACBD3 / RFU, TMA16 / Fold change vs veh, TMA16 / RFU, RWDD3 / Fold change vs veh, RWDD3 / RFU, BCAT1 / Fold change vs veh, BCAT1 / RFU, EDEM3 / Fold change vs veh, EDEM3 / RFU, TMEM33 / Fold change vs veh, TMEM33 / RFU, WDR75 / Fold change vs veh, WDR75 / RFU, AHCTF1 / Fold change vs veh, AHCTF1 / RFU, TFRC / Fold change vs veh, TFRC / RFU, ZDHHC17 / Fold change vs veh, ZDHHC17 / RFU, NOM1 / Fold change vs veh, NOM1 / RFU, ARL8B / Fold change vs veh, ARL8B / RFU, ZBTB11 / Fold change vs veh, ZBTB11 / RFU, TAMM41 / Fold change vs veh, TAMM41 / RFU, KIAA1704 /// LOC100996395 / Fold change vs veh, KIAA1704 /// LOC100996395 / RFU, ING1 / Fold change vs veh, ING1 / RFU, TRMT61B / Fold change vs veh, TRMT61B / RFU, FUBP3 / Fold change vs veh, FUBP3 / RFU, TP53 / Fold change vs veh, TP53 / RFU, TNKS2 / Fold change vs veh, TNKS2 / RFU, ZFP14 / Fold change vs veh, ZFP14 / RFU, ACTR2 / Fold change vs veh, ACTR2 / RFU, PPP3R1 / Fold change vs veh, PPP3R1 / RFU, PIK3R1 / Fold change vs veh, PIK3R1 / RFU, HNRNPA1 / Fold change vs veh, HNRNPA1 / RFU, RNF170 / Fold change vs veh, RNF170 / RFU, ZNF28 / Fold change vs veh, ZNF28 / RFU, RNGTT / Fold change vs veh, RNGTT / RFU, OGT / Fold change vs veh, OGT / RFU, BRD1 / Fold change vs veh, BRD1 / RFU, MARS / Fold change vs veh, MARS / RFU, ZNF655 / Fold change vs veh, ZNF655 / RFU, FAHD1 / Fold change vs veh, FAHD1 / RFU, BDP1 / Fold change vs veh, BDP1 / RFU, LRRCC1 / Fold change vs veh, LRRCC1 / RFU, ARID1A / Fold change vs veh, ARID1A / RFU, ZNF146 / Fold change vs veh, ZNF146 / RFU, ZNF330 / Fold change vs veh, ZNF330 / RFU, GPN3 / Fold change vs veh, GPN3 / RFU, C9orf123 / Fold change vs veh, C9orf123 / RFU, N4BP2L2 / Fold change vs veh, N4BP2L2 / RFU, ARFIP1 / Fold change vs veh, ARFIP1 / RFU, FAM179B / Fold change vs veh, FAM179B / RFU, BCL10 / Fold change vs veh, BCL10 / RFU, UHRF1BP1L / Fold change vs veh, UHRF1BP1L / RFU, BET1 / Fold change vs veh, BET1 / RFU, CNOT2 / Fold change vs veh, CNOT2 / RFU, ZNF268 / Fold change vs veh, ZNF268 / Fold change vs veh, ZNF507 / RFU, DGCR2 / Fold change vs veh, DGCR2 / RFU, WDSUB1 / Fold change vs veh, WDSUB1 / Fold change vs veh, HSP90B1 /// MIR3652 / RFU, ADSS / Fold change vs veh, ADSS / RFU, GK / Fold change vs veh, GK / RFU, ZNF148 / Fold change vs veh, ZNF148 / RFU, TAF9 / Fold change vs veh, TAF9 / RFU, SLC1A5 / Fold change vs veh, SLC1A5 / RFU, SLMO2 / Fold change vs veh, SLMO2 / RFU, ABCC4 / Fold change vs veh, ABCC4 / RFU, LOC101060439 /// RAP1B / Fold change vs veh, LOC101060439 /// RAP1B / RFU, RFX7 / Fold change vs veh, RFX7 / RFU, GTPBP10 / Fold change vs veh, GTPBP10 / RFU, CNEP1R1 / Fold change vs veh, CNEP1R1 / RFU, BIVM-ERCC5 /// ERCC5 / Fold change vs veh, BIVM-ERCC5 /// ERCC5 / RFU, ILF3 / Fold change vs veh, ILF3 / RFU 11762660_at / Fold change /veh 11762660_at / RFU VCAN (11757783_s_at) / Fold change /veh VCAN (11757783_s_at) / RFU DDX43 (11728927_at) / Fold change /veh DDX43 (11728927_at) / RFU KRT8 (11758188_x_at) / Fold change /veh KRT8 (11758188_x_at) / RFU NKD1 (11759106_at) / Fold change /veh NKD1 (11759106_at) / RFU SRD5A1 (11742802_a_at) / Fold change /veh SRD5A1 (11742802_a_at) / RFU TPSAB1 /// TPSB2 (11721975_s_at) / Fold change /veh TPSAB1 /// TPSB2 (11721975_s_at) / RFU GSTM3 (11746129_a_at) / Fold change /veh GSTM3 (11746129_a_at) / RFU IL23R (11737362_x_at) / Fold change /veh IL23R (11737362_x_at) / RFU TMEM51 (11727254_a_at) / Fold change /veh TMEM51 (11727254_a_at) / RFU PIWIL2 (11732686_x_at) / Fold change /veh PIWIL2 (11732686_x_at) / RFU ORM1 (11744905_x_at) / Fold change /veh ORM1 (11744905_x_at) / RFU CCDC152 (11743942_at) / Fold change /veh CCDC152 (11743942_at) / RFU ECM1 (11717891_a_at) / Fold change /veh ECM1 (11717891_a_at) / RFU IL23R (11748794_a_at) / Fold change /veh IL23R (11748794_a_at) / RFU TNFAIP8L3 (11732012_x_at) / Fold change /veh TNFAIP8L3 (11732012_x_at) / RFU MBOAT4 (11741988_at) / Fold change /veh MBOAT4 (11741988_at) / RFU 11764193_at / Fold change /veh 11764193_at / RFU TMEM53 (11763286_at) / Fold change /veh TMEM53 (11763286_at) / RFU MAGEB2 (11727129_at) / Fold change /veh MAGEB2 (11727129_at) / RFU TMEM200A (11744735_a_at) / Fold change /veh TMEM200A (11744735_a_at) / RFU CCDC152 (11751479_a_at) / Fold change /veh CCDC152 (11751479_a_at) / RFU FAM211A (11726209_a_at) / Fold change /veh FAM211A (11726209_a_at) / RFU RGS16 (11746705_a_at) / Fold change /veh RGS16 (11746705_a_at) / RFU VCAN (11755009_s_at) / Fold change /veh VCAN (11755009_s_at) / RFU RHOB (11743442_s_at) / Fold change /veh RHOB (11743442_s_at) / RFU RGS16 (11720943_a_at) / Fold change /veh RGS16 (11720943_a_at) / RFU RGS16 (11720944_at) / Fold change /veh RGS16 (11720944_at) / RFU, VPS4B / Fold change vs veh, VPS4B / RFU, CREB1 / Fold change vs veh, CREB1 / RFU, DNAJC13 / Fold change vs veh, DNAJC13 / RFU, GNAQ / Fold change vs veh, GNAQ / RFU, CDK5R1 / Fold change vs veh, CDK5R1 / RFU, ZRANB3 / Fold change vs veh, ZRANB3 / RFU, CUL4A / Fold change vs veh, CUL4A / RFU, CCNY / Fold change vs veh, CCNY / RFU, UFL1 / Fold change vs veh, UFL1 / RFU, COG3 / Fold change vs veh, COG3 / RFU, DIAPH2 / Fold change vs veh, DIAPH2 / RFU, SKA2 / Fold change vs veh, SKA2 / RFU, AFF3 / Fold change vs veh, AFF3 / RFU, LMF1 / Fold change vs veh, LMF1 / RFU, IPO11 / Fold change vs veh, IPO11 / RFU, DFFB / Fold change vs veh, DFFB / RFU, FOXP1 / Fold change vs veh, FOXP1 / RFU, CARD8 / Fold change vs veh, CARD8 / RFU, STRN3 / Fold change vs veh, STRN3 / RFU, ADK / Fold change vs veh, ADK / RFU, RASSF2 / Fold change vs veh, RASSF2 / RFU, WIPF1 / Fold change vs veh, WIPF1 / RFU, LARP1B / Fold change vs veh, LARP1B / RFU, RASA1 / Fold change vs veh, RASA1 / RFU, RB1 / Fold change vs veh, RB1 / RFU, PPFIA1 / Fold change vs veh, PPFIA1 / RFU, MAT2A / Fold change vs veh, MAT2A / RFU, CCT5 / Fold change vs veh, CCT5 / RFU, WDR92 / Fold change vs veh, WDR92 / RFU, CUX1 / Fold change vs veh, CUX1 / RFU, TTC7A / Fold change vs veh, TTC7A / RFU, TMEM135 / Fold change vs veh, TMEM135 / RFU, DEPTOR / Fold change vs veh, DEPTOR / RFU, CPM / Fold change vs veh, CPM / RFU, DNAJB6 / Fold change vs veh, DNAJB6 / RFU, CACNA2D3 / Fold change vs veh, CACNA2D3 / RFU, DTX4 / Fold change vs veh, DTX4 / RFU, TFCP2 / Fold change vs veh, TFCP2 / RFU, GMCL1 /// GMCL1P1 / Fold change vs veh, GMCL1 /// GMCL1P1 / RFU, AEBP2 / Fold change vs veh, AEBP2 / RFU, SNHG1 /// SNORD22 /// SNORD25 /// SNORD26 /// SNORD27 /// SNORD28 /// SNORD29 /// SNORD31 / Fold change vs veh, SNHG1 /// SNORD22 /// SNORD25 /// SNORD26 /// SNORD27 /// SNORD28 /// SNORD29 /// SNORD31 / Fold change (Aza/veh), C12orf56 (ProbeSet 11735607_a_at) / Fold change (ACY-1035/veh), C12orf56 (ProbeSet 11735607_a_at) / Fold change (Aza/veh), FGFR1OP (ProbeSet 11751329_s_at) / Fold change (ACY-1035/veh), FGFR1OP (ProbeSet 11751329_s_at) / Fold change (Aza/veh), VPS36 (ProbeSet 11739960_a_at) / Fold change (ACY-1035/veh), VPS36 (ProbeSet 11739960_a_at) / RFU SYPL1 (11715823_x_at) / Fold change /veh SYPL1 (11715823_x_at) / RFU IGFBP7 (11715501_s_at) / Fold change /veh IGFBP7 (11715501_s_at) / RFU REEP3 (11722064_at) / Fold change /veh REEP3 (11722064_at) / RFU IGLL1 (11728026_x_at) / Fold change /veh IGLL1 (11728026_x_at): dose or concentration left out as unconfirmed
# Conditions: ProbeSet 11763895_x_at; LIST B
structure (smiles),measurement,value
Nc1ncn([C@@H]2O[C@H](CO)[C@@H](O)[C@H]2O)c(=O)n1 [azacitidine],"Fold change vs veh, SNORA58",1.03
